Results from publication PMC4444405 (Chemical biology & drug design, 2014).
Where two headings read alike, the source gives them in different places. Square brackets hold non-standard residues; d marks the D form. Ends that are not written are not given here. pY = N[C@@H](Cc1ccc(OP(=O)(O)O)cc1)C(=O)O

Assays:
Src-YEEI [1] = biological target: T1, Src-YEEI (Homo sapiens, UniProt P12931); type: biochemical; details: read-out: IC50, Src-YEEI alone, ADP Quest
[2] = biological target: T2, Src-YEEI:pFAK peptide complex (Homo sapiens, UniProt P12931); type: biochemical; details: read-out: IC50, Src-YEEI + pFAK, ADP Quest
[3] = tested on: Src-YEEI:pFAK peptide complex; type: biochemical, human; details: ratio of the IC50 values for Src-YEEI:pFAK peptide complex and Src-YEEI alone, ADP Quest
[4] = biological target: T2, Src-YEEI:pFAK peptide complex; test: Z'Lyte end-point in vitro kinase assay, Src-YEEI in presence of pFAK peptide; type: biochemical; details: compound 10 μM; Z'Lyte library screen
[5] = tested on: Src-YEEI:pFAK peptide complex; test: as above; type: biochemical, human; details: ratio of the IC50 values for Src-YEEI:pFAK peptide complex and Src-YEEI alone, Z'Lyte
Src-YEEI [6] = biological target: T1, Src-YEEI; type: biochemical
Src-YEEI [7] = biological target: T1, Src-YEEI; type: biochemical; remark: listed apart in the source
Src-YEEI [8] = biological target: T1, Src-YEEI; type: biochemical; remark: listed apart in the source

Compound	IC50 (Src-YEEI [1]) [nM]	IC50 [2] [nM]	Selectivity ratio, ADP Quest [3]	percent inhibition of Src-YEEI:pFAK peptide complex in the screening assay [4]	Selectivity ratio, Z'Lyte [5]	percent inhibition of Src-YEEI alone in the screening assay (Src-YEEI [6]; 10 µM)	IC50 (Src-YEEI [6]; read-out: IC50, Src-YEEI alone, Z'Lyte) [nM]	rate of ADP production by Src-YEEI in presence of peptide (Src-YEEI [7]) [pmol ADP produced/min]	percent of maximal activation of Src-YEEI (Src-YEEI [8]) [%]
COc1ccc(N(C(=O)Oc2c(C)cccc2C)c2ccnc(Nc3ccc(N4CCN(C)CC4)cc3)n2)c(OC)c1 [WH-4-023]	19	25	0.76	more than 70%	0.94	more than 70%	1280		
AAAARALPSIPKLAN NEKQGVRSHTVSVSETDDY^PAEIID (AAAARALPSIPKLANNEKQGVRSHTVSVSETDD[pY]AEIID) [pFAK]								1.0	40
